Data reported in patent US11572353B2, “Alkynyl-substituted heterocyclic compound, preparation method therefor and medical use thereof” (BEIJING INNOCARE PHARMA TECH CO., LTD., priority 2016, dated 2023).

Columns and labels:
[1] = target: human recombinant FGFR1 catalytic domain protein (amino acid 308-731) (Homo sapiens (Human), UniProt P11362); experiment: FGFR1 activity inhibition test (HTRF kinase assay); type: biochemical; conditions: 40 μM ATP
Method: (§1) The effect of the compounds of the present invention on the in vitro activity of FGFR was assessed by measuring the phosphorylation level of the substrate in a kinase reaction using the HTRF kinase assay kit (Table 1).
(§2) If the IC50 value of a compound is very low, the initial concentration of the compound can be lowered.
(§3) The IC50 value of the compound was calculated from the 10 concentration points using the XLfit software in Excel by the following formula: Y=Bottom+(Top−Bottom)/(1+10^((log IC50−X)*slope factor))
(§4) Where Y is the percentage of inhibition, Bottom is the bottom platform value of the S-curve, Top is the top platform value of the S-curve, X is the logarithm of the concentration of the compound to be tested, and slope factor is the slope coefficient of the curve.

[2] = target: human recombinant FGFR3 catalytic domain protein (amino acid 399-806) (Homo sapiens (Human), UniProt P22607); experiment: FGFR3 activity inhibition test (HTRF kinase assay); type: biochemical; conditions: 90 μM ATP
Chain of human recombinant FGFR3 catalytic domain protein (amino acid 399-806) (P22607 399-806): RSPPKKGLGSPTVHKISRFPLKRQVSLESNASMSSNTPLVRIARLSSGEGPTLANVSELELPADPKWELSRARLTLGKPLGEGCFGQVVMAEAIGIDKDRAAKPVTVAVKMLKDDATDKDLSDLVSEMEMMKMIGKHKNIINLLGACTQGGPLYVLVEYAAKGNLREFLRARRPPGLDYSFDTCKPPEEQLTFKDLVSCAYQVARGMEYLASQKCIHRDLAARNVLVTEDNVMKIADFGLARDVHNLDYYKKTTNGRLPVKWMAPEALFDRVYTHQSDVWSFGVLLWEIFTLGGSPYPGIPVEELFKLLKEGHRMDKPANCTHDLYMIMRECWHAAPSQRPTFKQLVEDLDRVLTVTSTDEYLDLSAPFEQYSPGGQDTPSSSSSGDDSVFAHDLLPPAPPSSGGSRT
Method: as §1, §2, §3, §4

[3] = system: SNU-16 gastric cancer cell line; experiment: Inhibition on the proliferation of SNU-16 cells (luminescent cell viability assay); type: cell-based; conditions: Homo sapiens, 72 hours
Method: (§5) CellTilter-Glo reagent (Promega, Cat. No. G7572) consists of CTG lyophilized powder and CTG buffer. Before use, the lyophilized powder needs to be dissolved in the buffer.
(§6) After overnight incubation, 3 μL of DMEM diluted compound was added to each well, which was then gently centrifuged to mix well, and then the 384-well plate was placed in a 37° C., 5% CO2 incubator to continue the culture, and after 72 hours, the plate was taken out and allowed to stand at room temperature for 30 minutes, next added 15 μL of CTG reagent per well, which was warmed up to room temperature, the plate was shaken gently on a shaker for 3 minutes to ensure sufficient cell lysis, allowed to stand 10 minutes to stabilize the luminescence signal, and then read the luminescence signal with EnVision (Perkin Elmer).
as §4
The effect of the compounds of the present invention on cell proliferation of SNU-16 gastric cancer cell line was assessed using a luminescent cell viability assay (Table 2).
(§7) For the experimental method, please refer to the method for determining the inhibition on the proliferation of Hep3B cells.

[4] = target: human recombinant FGFR4 catalytic domain protein (amino acid 460-802) (Homo sapiens (Human), UniProt P22455); experiment: FGFR4 activity inhibition test (HTRF kinase assay); type: biochemical; conditions: 90 μM ATP
Chain of human recombinant FGFR4 catalytic domain protein (amino acid 460-802) (P22455 460-802): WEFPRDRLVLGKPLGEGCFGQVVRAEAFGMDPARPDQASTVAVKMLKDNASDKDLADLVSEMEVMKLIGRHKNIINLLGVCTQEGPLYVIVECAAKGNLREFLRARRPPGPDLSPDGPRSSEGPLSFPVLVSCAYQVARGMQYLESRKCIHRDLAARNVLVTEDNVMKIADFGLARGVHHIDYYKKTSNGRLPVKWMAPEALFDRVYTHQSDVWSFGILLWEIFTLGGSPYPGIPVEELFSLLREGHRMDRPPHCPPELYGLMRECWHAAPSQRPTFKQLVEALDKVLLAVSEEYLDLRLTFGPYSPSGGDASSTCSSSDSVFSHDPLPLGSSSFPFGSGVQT
Method: as §1, §2, §3, §4

[5] = target: human recombinant FGFR2 catalytic domain protein (amino acid 400-821) (Homo sapiens (Human), UniProt P21802); experiment: FGFR2 activity inhibition test (HTRF kinase assay); type: biochemical; conditions: 50 μM ATP
Chain of human recombinant FGFR2 catalytic domain protein (amino acid 400-821) (P21802 400-821): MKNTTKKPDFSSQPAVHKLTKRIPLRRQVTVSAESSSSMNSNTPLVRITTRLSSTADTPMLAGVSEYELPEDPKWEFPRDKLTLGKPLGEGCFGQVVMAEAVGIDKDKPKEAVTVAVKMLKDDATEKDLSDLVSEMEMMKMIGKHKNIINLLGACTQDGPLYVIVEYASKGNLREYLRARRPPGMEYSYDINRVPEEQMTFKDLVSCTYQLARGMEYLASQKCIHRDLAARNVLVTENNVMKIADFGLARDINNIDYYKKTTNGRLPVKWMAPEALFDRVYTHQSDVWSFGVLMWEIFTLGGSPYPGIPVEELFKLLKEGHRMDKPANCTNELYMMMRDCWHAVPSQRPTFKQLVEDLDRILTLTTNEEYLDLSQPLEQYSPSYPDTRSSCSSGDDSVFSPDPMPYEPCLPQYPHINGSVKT
Method: as §1, §2, §3, §4

[6] = system: FGFR2-overexpressed SNU-16 gastric cancer cell line derived xenograft tumors; type: in vivo; conditions: 10 mg/kg oral BID
Method: The cells were harvested in 90% confluence and no less than 90% viability, and then counted. […] Mice were inoculated subcutaneously into the right flank with 200 uL of 8×10^6 SNU-16 cells resuspended in 50% Matrigel (purchased from Corning). […] Dosing was initiated on day 0 and effects on tumor growth were evaluated by measuring the percentage of tumor growth inhibition (TGI) at the end of the study. Tolerability was assessed by body weight loss, lethality, and clinical signs of adverse treatment-related side effects. Tumor volume and body weight were measured twice per week during the administration period. The percentage of TGI was determined on day 25 after treatment. The difference between the mean value of tumor volume in the treatment group and that in the vehicle group was analyzed for significance using one-way ANOVA (followed by Dennett's test) at each time point and a P<0.05 was considered to be statistically significant.

Hep3B hepatoma cell line = experiment: Inhibition on the proliferation of Hep3B cells (luminescent cell viability assay); type: cell-based; conditions: Homo sapiens, 72 hours
Method: The effect of the compounds of the present invention on cell proliferation of Hep3B hepatoma cell line was assessed using a luminescent cell viability assay (Table 2).
as §5, §6, §4

[7] = system: RT4 bladder cancer cell line; experiment: Inhibition on the proliferation of RT4 cells (luminescent cell viability assay); type: cell-based; conditions: Homo sapiens, RT-4, 72 hours
Method: as §5, §6, §4
The effect of the compounds of the present invention on cell proliferation of the RT4 bladder cancer cell line was assessed using a luminescent cell viability assay (Table 2).
as §7

Chain of human recombinant FGFR1 catalytic domain protein (amino acid 308-731) (P11362 other isoform, or with tags, fused parts or gaps): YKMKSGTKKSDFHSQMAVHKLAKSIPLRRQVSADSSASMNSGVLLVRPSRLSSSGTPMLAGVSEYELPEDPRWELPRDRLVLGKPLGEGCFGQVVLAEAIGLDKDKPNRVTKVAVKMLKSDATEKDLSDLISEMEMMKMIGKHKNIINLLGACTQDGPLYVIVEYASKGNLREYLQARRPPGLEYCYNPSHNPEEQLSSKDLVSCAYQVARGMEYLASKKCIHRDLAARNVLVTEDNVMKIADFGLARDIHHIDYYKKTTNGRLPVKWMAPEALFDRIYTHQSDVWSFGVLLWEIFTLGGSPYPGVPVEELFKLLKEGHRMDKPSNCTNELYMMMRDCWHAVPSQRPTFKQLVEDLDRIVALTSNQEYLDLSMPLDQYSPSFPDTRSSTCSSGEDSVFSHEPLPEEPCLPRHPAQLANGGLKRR

| Compound | IC50 [1] [nM] | IC50 [2] [nM] | IC50 [3] [nM] | IC50 [4] [nM] | IC50 [5] [nM] | IC50 (Hep3B hepatoma cell line) [nM] | IC50 [7] [nM] | anti-tumor activity [6] |
| --- | --- | --- | --- | --- | --- | --- | --- | --- |
| CCN1CCN(c2ccc(Nc3cc(N(C)C(=O)Nc4c(Cl)c(OC)cc(OC)c4Cl)ncn3)cc2)CC1 [BGJ-398, reference compound] | – | – | – | – | – | – | – | significant anti-tumor activity |
| C=CC(=O)N1CC[C@H](n2nc(C#Cc3cc(OC)cc(OC)c3)c(C(N)=O)c2NC2CCN(C)CC2)C1 [Compound 34, (S)-1-(1-acryloylpyrrolidin-3-yl)-3-((3,5-dimethoxyphenyl)ethynyl)-5-((1-methylpiperidin-4-yl)amino)-1H-pyrazole-4-carboxamide] | 10 to 100 | < 10 | – | – | < 10 | – | – | – |
| COc1cc(C#Cc2nn([C@H]3CCN(C#N)C3)c(N)c2C(N)=O)cc(OC)c1 [Compound 12, (S)-5-amino-1-(1-cyanopyrrolidin-3-yl)-3-((3,5-dimethoxyphenyl)ethynyl)-1H-pyrazole-4-carboxamide] | 100 to 1000 | < 10 | – | 10 to 100 | < 10 | 100 to 1000 | 100 to 1000 | – |
| C=CC(=O)N1CC[C@@H](n2nc(C#Cc3cc(OC)cc(OC)c3)c(C(N)=O)c2N)C1 [Compound 13, (R)-1-(1-acryloylpyrrolidin-3-yl)-5-amino-3-((3,5-dimethoxyphenyl)ethynyl)-1H-pyrazole-4-carboxamide] | 10 to 100 | < 10 | – | 10 to 100 | < 10 | – | – | – |
| C=CC(=O)N1CCC(n2nc(C#Cc3cc(OC)cc(OC)c3)c(C(N)=O)c2N)CC1 [Compound 15, 1-(1-acryloylpiperidin-4-yl)-5-amino-3-((3,5-dimethoxyphenyl)ethynyl)-1H-pyrazole-4-carboxamide] | 100 to 1000 | 10 to 100 | – | 10 to 100 | 10 to 100 | – | – | – |
| C=CC(=O)N1CC(n2cc(C(N)=O)c(C#Cc3cc(OC)cc(OC)c3)n2)C1 [Compound 3, 1-(1-acryloylazetidin-3-yl)-3-((3,5-dimethoxyphenyl)ethynyl)-1H-pyrazole-4-carboxamide] | 100 to 1000 | 10 to 100 | – | 10 to 100 | 10 to 100 | – | – | – |

Now from value to compound, other results behind:

| IC50 [1] [nM] | IC50 [2] [nM] | IC50 [3] [nM] | IC50 [4] [nM] | IC50 [5] [nM] | IC50 (Hep3B hepatoma cell line) [nM] | IC50 [7] [nM] | Compound | anti-tumor activity [6] |
| --- | --- | --- | --- | --- | --- | --- | --- | --- |
| < 10 | < 10 | 10 to 100 | < 10 | < 10 | – | – | C=CC(=O)N1CC[C@H](n2nc(C#Cc3cc(OC)cc(C(=O)NC)c3)c(C(N)=O)c2N)C1 [Compound 20, (S)-1-(1-acryloylpyrrolidin-3-yl)-5-amino-3-((3-methoxy-5-(methylcarbamoyl)phenyl)ethynyl)-1H-pyrazole-4-carboxamide] | – |
| 10 to 100 | < 10 | < 10 | 10 to 100 | 10 to 100 | – | < 10 | C=CC(=O)N1CC[C@H](n2nc(C#Cc3cc(OC)cc(OC)c3)c(C(N)=O)c2NCCOC)C1 [Compound 28, (S)-1-(1-acryloylpyrrolidin-3-yl)-3-((3,5-dimethoxyphenyl)ethynyl)-5-((2-methoxyethyl)amino)-1H-pyrazole-4-carboxamide] | – |
| < 10 | < 10 | 10 to 100 | < 10 | < 10 | – | – | C=CC(=O)N1CC[C@H](n2nc(C#Cc3cc(C(=O)NC)ccc3Cl)c(C(N)=O)c2N)C1 [Compound 19, (S)-1-(1-acryloylpyrrolidin-3-yl)-5-amino-3-((2-chloro-5-(methylcarbamoyl)phenyl)ethynyl)-1H-pyrazole-4-carboxamide] | – |
| < 10 | < 10 | – | < 10 | < 10 | – | – | C=CC(=O)N1CC(n2nc(C#Cc3cc(OC)cc(OC)c3)c(C(N)=O)c2N)C1 [Compound 14, 1-(1-acryloylazetidin-3-yl)-5-amino-3-((3,5-dimethoxyphenyl)ethynyl)-1H-pyrazole-4-carboxamide] | – |
| 10 to 100 | – | < 10 | 10 to 100 | – | 10 to 100 | 10 to 100 | CC#CC(=O)N1CC[C@H](n2nc(C#Cc3cc(OC)cc(OC)c3)c(C(N)=O)c2N)C1 [Compound 10] | – |
| 10 to 100 | 10 to 100 | < 10 | 10 to 100 | < 10 | – | 10 to 100 | C=CC(=O)N1CC[C@H](n2nc(C#Cc3cc(Cl)ccc3F)c(C(N)=O)c2N)C1 [Compound 18, (S)-1-(1-acryloylpyrrolidin-3-yl)-5-amino-3-((5-chloro-2-fluorophenyl)ethynyl)-1H-pyrazole-4-carboxamide] | – |
| 10 to 100 | < 10 | – | 10 to 100 | 10 to 100 | – | – | C=CC(=O)N1CCC(Cn2nc(C#Cc3cc(OC)cc(OC)c3)c(C(N)=O)c2N)C1 (stereo not shown) [Compound 16, 1-((1-acryloylpyrrolidin-3-yl)methyl)-5-amino-3-((3,5-dimethoxyphenyl)ethynyl)-1H-pyrazole-4-carboxamide] | – |
